The test system of test [1] is APP/PS1 mice. Description: flow cytometry of brain microglia polarity (CD86/CD206, Fig 4e). The class given is in vivo, mouse. As to conditions: APP/PS1 + N-AS, individual values. The method, then:
Transgenic mouse lines over-expressing the hAPP695swe (APP) and presenilin-1M146V (PS1) mutations were originated from GlaxoSmithKline (Harlow, UK)[32] and maintained as described previously. We purchased 5×FAD mice from Jackson Labs (Stock number. 34840-JAX). Because APP/PS1 and 5xFAD mice show sex differences in disease progression, we used only male mice. To examine possible therapeutic effect of N-AS and aspirin in APP/PS1 mice, the N-AS (30 mg kg^−1, Sigma-Aldrich, 01912) was injected daily s.c. for 8 weeks to 7-months-old APP/PS1 mice until the age of 9 months, and aspirin (2 mg kg^−1, Sigma-Aldrich, A5376)[33] was administrated orally to 7-months-old APP/PS1 mice for 8 weeks. Also, to confirm possible therapeutic efficacy of N-AS in 5×FAD, the N-AS (30 mg kg^−1, Sigma-Aldrich, 01912) was injected daily s.c. for 4 weeks to 3-months-old 5×FAD mice until the age of 4 months. Block randomization method was used to allocate the animals to experimental groups. To eliminate the bias, we were blinded in experimental progress such as data collection and data analysis. Mice were housed at temperature of 22 °C and a 12 h day/12 h night cycle with free access to tap water and food pellets. All protocols were approved by the Kyungpook National University Institutional Animal Care and Use Committee.
Brain microglia polarity and immune cells in brain and blood were analyzed by flow cytometry. Cells from WT, APP/PS1, and APP/PS1 treated with N-AS mice brain were prepared as previously described with minor modifications. Brains of WT, APP/PS1, and APP/PS1 treated with N-AS mice were dissected and immediately transferred in ice-cold HBSS (Gibco). After gentle mincing, the brain was digested in a HBSS solution containing collagenase P (0.2 mg ml^−1, Roche), dispase II (0.8 mg ml^−1, Roche), DNase I (0.01 mg ml^−1, Roche), and collagenase A (0.3 mg ml^−1, Roche) at 37 °C for 1 h under gentle rocking. […] Red blood cells were lysed once at 4 °C for 10 min in 0.15 M NH4Cl ([…] Technologies), washed once with PBS (Gibco), and counted using cell counter (Logos biosystems). […]

The subject of test [2] is APP/PS1 mice. Description: N-AS level in microglia and neuron isolated from treated mice (LC-MS/MS, Fig 4b). The class given is in vivo, mouse. Particulars: N-AS 30 mg kg^-1 daily s.c. 8 weeks, individual values. As to the method:
Reactions were quenched by adding equal volume of cold methanol. A 100 μl aliquot of the reaction mixture was mixed with 30 μl of distilled water containing 5 ng ml^−1 of furosemide (internal standard) for 1 min and vigorously mixed with […] of ethyl acetate for 20 min. After centrifugation at 16,000×g for 10 min, the mixtures were kept for 2 h for freezing aqueous phase. The upper ethyl acetate layer was transferred to a clean tube and evaporated to dryness under a gentle stream of nitrogen. Then, the dried extract was reconstituted in 100 µl of mobile phase and 10 µl aliquot of the solution was injected into an Agilent 6470 Triple Quad LC–MS/MS system (Agilent, Wilmington, DE) coupled with an Agilent 1260 HPLC system. […] Quantification was carried out using multiple reaction monitoring (MRM) at m/z 340.3→263.3 for N-AS and m/z 328.9→284.8 for furosemide (internal standard) in negative ionization mode and collision energy of 20 eV. […]
Adult neurons and microglia were isolated from the mice brain as previously described. […] The purity of the fractionated neurons and microglia were acutely confirmed by neuronal (NeuN, mouse, 1:200, Millipore, MAB377) and microglial (Iba1, rabbit, 1:1000, Wako, 019-19941) markers and the isolated neurons and microglia were acutely analyzed for the acetylation assay and lipid mediators metabololipidomics. […]

“And” between values parts separate entries of the source, which are not always exact repeats. Equal entries are not always repeated.

Take `CCCCCCCCCCCCC/C=C/[C@@H](O)[C@H](CO)NC(C)=O` [N-AS, N-((2S,3R,E)-1,3-Dihydroxyoctadec-4-en-2-yl)acetamide]: in the test on APP/PS1 mice [1], the “calculated percentage of CD86+ CD206+ cells” value was 1.29 and 0.77 and 0.87 and 1.7 and 1.28 and 1.46; the “calculated percentage of CD86+ CD206- (pro-inflammatory microglia) cells” value is 0.012 and 0.071 and 0.011 and 0.023 and 0.034 and 0.025; the “calculated percentage of CD86- CD206+ (anti-inflammatory microglia) cells” value is 3.06 and 1.43 and 2.01 and 2.77 and 2.35 and 2.46. Besides, the “N-AS quantification (Fig 4b)” value with APP/PS1 mice [2] (Microglia of APP/PS1 mice) was 8.217 and 7.5949 and 7.58 and 7.906 and 7.587 and 7.743. Besides, in the test with APP/PS1 mice [2] (Neuron of APP/PS1 mice), the “N-AS quantification (Fig 4b)” value is 2.188 and 3.557 and 2.872 (3×) and 3.215.

The record behind these values is article PMC7217877, “N-AS-triggered SPMs are direct regulators of microglia in a model of Alzheimer’s disease” (Nature Communications, 2020).
